Test system: primary human mesenchymal stem cells (hMSCs)
Experiment: Induction of chondrogenesis in primary human mesenchymal stem cells (nodule imaging, Rhodamine B / Nile Red)
Format: cell-based
Conditions: for EC50: concentration required to induce 50% levels of chondrogenesis vs TGF-β3 positive control, read-out: Conc (nM) of 50% TGF-β3 activity; for Emax: maximum chondrogenesis activity relative to TGF-β3 (10 ng/mL) positive control, read-out: Max. Activity as % TGF-β3 activity
Method: Representative compounds were screened using primary human mesenchymal stem cells (hMSCs) to determine their ability to induce chondrogenesis (process by which cartilage is developed).
Primary human mesenchymal stem cells (hMSCs) were purchased from Lonza (Walkersville, Md.) and expanded in Mesenchymal Stem Cell Growth Media (Lonza). Cells between passage 3 and 6 were used for the experiments.
Each compound was dissolved in DMSO as a 10 mM stock and used to prepare compound source plates. For the 96 well assay, serial dilution (1:3, 6-point dose-response curves from 2700 nM to 10 nM) and compound transfer was performed using the ECHO 550 (Labcyte, Sunnyvale, Calif.) into 96-well clear bottom assay plates (Greiner Bio-One) with appropriate DMSO backfill for a final DMSO concentration of 0.03%. hMSCs were plated at 20,000 cells/well in 250 μL/well Incomplete Chondrogenic Induction Medium (Lonza; DMEM, dexamethasone, ascorbate, insulin-transferrin-selenium [ITS supplement], gentamycin-amphotericin [GA-1000], sodium pyruvate, proline and L-glutamine). TGF-β3 (10 ng/mL) was used as a positive control for differentiation while negative control wells were treated with 75 nL DMSO for normalization and calculating EC50 values. For the 384 well assay, serial dilution (1:3, 8-point dose-response curves from 5000 nM to 2.2 nM) and compound transfer was performed using the ECHO 550 (Labcyte, Sunnyvale, Calif.) into 384-well clear bottom assay plates (Greiner Bio-One) with appropriate DMSO backfill for a final DMSO concentration of 0.03%. hMSCs were plated at 8,000 cells/well in 80 μL/well Incomplete Chondrogenic Induction Medium (Lonza; DMEM, dexamethasone, ascorbate, insulin-transferrin-selenium [ITS supplement], gentamycin-amphotericin [GA-1000], sodium pyruvate, proline and L-glutamine). TGF-β3 (10 ng/mL) was used as a positive control for differentiation while negative control wells were treated with 25 nL DMSO for normalization and calculating EC50 values. Cells were incubated at 37° C. and 5% CO2 for 6 days. To image chondrogenic nodules, the cells were fixed using 4% formaldehyde (Electron Microscopy Sciences), and stained with 2 μg/mL Rhodamine B (Sigma-Aldrich) and 20 μM Nile Red (Sigma-Aldrich) [Johnson K., et. al, A Stem CellBased Approach to Cartilage Repair, Science, (2012), 336(6082), 717-721]. The nodules imaged (25 images per well for 96 well plates and 9 images per well for 384 well plates at 10× magnification) by excitation at 531 nm and emission at 625 nm and quantified using the CellInsight CX5 (Thermo Scientific). Area of nodules in each well was normalized to the average of 3 DMSO treated wells on the same plate using Excel (Microsoft Inc.). The normalized averages (fold change over DMSO) of 2 or 3 replicate wells for each compound concentration were calculated. Due to solubility limitations of some of the compounds, curve fitting was incomplete leading to inaccurate EC50 determinations.
Using TGF-β3 as a positive control, the concentration of representative compounds required to induce 50% levels of chondrogenesis is reported. In addition, the maximum activity of each compound and the respective dose that each compound reached maximum chondrogenesis activity is reported.

Row | Structure (SMILES) | EC50 | Emax
1 | c1ccc2[nH]c(-c3n[nH]c4ccc(-c5cncc(CN6CCCC6)c5)cc34)cc2c1 [Compound 266, 3-(1H-Indol-2-yl)-5-(5-(pyrrolidin-1-ylmethyl)pyridin-3-yl)-1H-indazole] | 100 nM | 217%
2 | CN(C)Cc1cncc(-c2ccc3[nH]nc(-c4cc5c(-c6cccs6)cccc5[nH]4)c3c2)c1 [Compound 349, N,N-Dimethyl-1-(5-(3-(4-(thiophen-2-yl)-1H-indol-2-yl)-1H-indazol-5-yl)pyridin-3-yl)methanamine] | 30 nM | 181%
3 | CS(=O)(=O)NCc1cc(F)cc(-c2cccc3[nH]c(-c4n[nH]c5ccc(-c6cncnc6)cc45)cc23)c1 [Compound 503, N-(3-Fluoro-5-(2-(5-(pyrimidin-5-yl)-1H-indazol-3-yl)-1H-indol-4-yl)benzyl) methanesulfonamide] | 10 nM | 194%
4 | c1ccc2[nH]c(-c3n[nH]c4ccc(-c5cncc(OCCN6CCCC6)c5)cc34)cc2c1 [Compound 686, 3-(1H-Indol-2-yl)-5-(5-(2-(pyrrolidin-1-yl)ethoxy)pyridin-3-yl)-1H-indazole] | 10 nM | 213%
